This experiment has as its target T1, 6His-Tev-LRRK2 (1326-2527) (Homo sapiens, UniProt Q5S007).
T1 construct: A LRRK2 cDNA encoding residues 1326-2527 was received from Dundee University; made in house; host or cells: Spodoptera frugiperda (Sf9) insect cells, baculovirus
T1 sequence (Q5S007 1326-2527): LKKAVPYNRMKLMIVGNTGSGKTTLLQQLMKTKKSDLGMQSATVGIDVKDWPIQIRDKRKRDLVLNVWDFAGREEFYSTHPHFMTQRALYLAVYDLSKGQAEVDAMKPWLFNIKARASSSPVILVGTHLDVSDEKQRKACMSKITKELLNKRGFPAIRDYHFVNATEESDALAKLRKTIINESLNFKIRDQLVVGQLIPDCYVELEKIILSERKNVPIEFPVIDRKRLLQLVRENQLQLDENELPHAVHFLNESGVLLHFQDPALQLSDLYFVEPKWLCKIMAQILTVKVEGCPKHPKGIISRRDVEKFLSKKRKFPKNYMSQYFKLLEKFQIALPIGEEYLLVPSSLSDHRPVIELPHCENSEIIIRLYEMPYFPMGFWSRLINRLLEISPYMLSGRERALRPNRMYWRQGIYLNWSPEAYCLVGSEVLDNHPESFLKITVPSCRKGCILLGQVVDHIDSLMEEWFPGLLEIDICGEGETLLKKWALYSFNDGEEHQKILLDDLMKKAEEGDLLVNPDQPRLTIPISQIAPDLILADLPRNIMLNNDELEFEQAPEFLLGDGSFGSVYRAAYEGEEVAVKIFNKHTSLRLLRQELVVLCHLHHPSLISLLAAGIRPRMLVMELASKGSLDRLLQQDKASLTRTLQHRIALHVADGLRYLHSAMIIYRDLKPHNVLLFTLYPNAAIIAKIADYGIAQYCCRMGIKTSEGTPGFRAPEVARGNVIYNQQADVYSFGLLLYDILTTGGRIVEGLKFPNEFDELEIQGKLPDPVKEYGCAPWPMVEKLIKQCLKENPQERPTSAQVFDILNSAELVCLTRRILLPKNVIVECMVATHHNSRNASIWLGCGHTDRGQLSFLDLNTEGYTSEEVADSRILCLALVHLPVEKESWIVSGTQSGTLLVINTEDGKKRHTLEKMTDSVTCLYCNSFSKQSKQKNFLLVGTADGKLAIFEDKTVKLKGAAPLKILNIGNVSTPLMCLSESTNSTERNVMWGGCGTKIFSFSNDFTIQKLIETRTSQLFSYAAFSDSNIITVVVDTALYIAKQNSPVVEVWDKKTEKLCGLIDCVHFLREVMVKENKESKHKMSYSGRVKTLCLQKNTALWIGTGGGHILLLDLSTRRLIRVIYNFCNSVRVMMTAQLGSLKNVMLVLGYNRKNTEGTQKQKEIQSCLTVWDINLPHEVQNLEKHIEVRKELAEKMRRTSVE
Nature of the experiment: LRRK2 AlphaScreen desensitised protein substrate assay. Format: biochemical. Particulars: excess of ATP present (2 mM ATP); read-out: pIC50 in the LRRK2 alphascreen desensitised protein substrate assay (converted). The protocol: a) 100 nl of a 1:4 serial dilution of test compound with a top final assay concentration of 30 μM is added to certain wells in a low volume 384 well black plate. 100 nl of DMSO is used in certain wells as controls.
b) 3 μl enzyme solution (80 nM purified recombinant 6His-Tev-LRRK2 (1326-2527) in assay buffer: 50 mM Hepes (pH 7.2), 10 mM MgCl2, 150 mM NaCl, 5% glycerol, 0.0025% triton X-100 and 1 mM DTT) is added to certain wells.
Plates are then incubated for a further 1-2 hours at room temperature (incubation time varies depending upon rate and linearity of reaction with differing enzyme batches).
d) 6 μl detection solution (1:250 dilution of AlphaLisa Protein A Acceptor beads (PerkinElmer), 1:64 dilution of AlphaLisa Gluthathione Donor beads (PerkinElmer) and 1:600 dilution (dilution determined on a batch to batch basis) of Phospho-Ezrin (Thr567)/Radixin (Thr564)/Moesin (Thr558) Polyclonal Antibody (New England Biolabs) in a buffer: 50 mM Hepes (pH 7.5), 250 mM NaCl, 60 mM EDTA, 1% PEG and 0.01% Brij 35) is added to each well. Plates are then incubated for a further 2 hours at room temperature in the dark before reading on an EnVision™ plate reader with AlphaScreen HTS turbo option module and AlphaScreen settings. Data is analysed using ActivityBase software (IDBS).
LRRK2 AlphaScreen Desensitised Protein Substrate Assay
This is conducted as described for the LRRK2 alphascreen protein substrate assay, with the following differences: • 1. The concentration of ATP in the substrate solution was 2 mM. • 2. The plates were incubated for 20 minutes at room temperature following addition of the substrate solution. Pharmacological Data
A general note: Bead proximity is the source of the signal in Alpha formats.
`CN1CCN(C(=O)c2ccc(OCc3ccccc3)c(C(=O)Nc3cccnc3)c2)CC1` [Example 35, 5-[(4-Methyl-1-piperazinyl)carbonyl]-2-[(phenylmethyl)oxy]-N-3-pyridinylbenzamide]: the IC50 is not above 20 µM. As to `O=C(Nc1cccnc1)c1cc(C(=O)N2CCCCC2)ccc1OCc1ccccc1` [Example 36, 2-[(Phenylmethyl)oxy]-5-(1-piperidinylcarbonyl)-N-3-pyridinylbenzamide], the IC50 is not above 20 µM. With `O=C(Nc1cccnc1)c1cc(S(=O)(=O)N2CCOCC2)ccc1OCc1ccccc1` [Example 41, 5-(4-Morpholinylsulfonyl)-2-[(phenylmethyl)oxy]-N-3-pyridinylbenzamide], the IC50 was more than 25.1 µM. Consider `O=C(Nc1cccnc1)c1cc(S(=O)(=O)N2CCCCC2)ccc1OCc1ccccc1` [Example 42, 2-[(Phenylmethyl)oxy]-5-(1-piperidinylsulfonyl)-N-3-pyridinylbenzamide], for which the IC50 is more than 25.1 µM. Take `CN1CCN(S(=O)(=O)c2ccc(OCc3ccccc3)c(C(=O)Nc3cccnc3)c2)CC1` [Example 43, 5-[(4-Methyl-1-piperazinyl)sulfonyl]-2-[(phenylmethyl)oxy]-N-3-pyridinylbenzamide]: the IC50 is more than 25.1 µM. As to `Cn1cc(NC(=O)c2cc(Br)ccc2OCc2ccccc2)cn1` [Example 50, 5-Bromo-N-(1-methyl-1H-pyrazol-4-yl)-2-[(phenylmethyl)oxy]benzamide], the IC50 is not above 20 µM.

For `Cc1ccncc1NC(=O)c1cc(-c2ccncc2)ccc1OCc1ccccc1` [Example 52, N-(4-Methyl-3-pyridinyl)-2-[(phenylmethyl)oxy]-5-(4-pyridinyl)benzamide], the IC50 is more than 25.1 µM. As to `COc1ncccc1NC(=O)c1cc(-c2ccncc2)ccc1OCc1ccccc1` [Example 53, N-[2-(Methyloxy)-3-pyridinyl]-2-[(phenylmethyl)oxy]-5-(4-pyridinyl)benzamide], the IC50 was more than 25.1 µM. In the case of `O=C(Nc1cccnc1F)c1cc(-c2ccncc2)ccc1OCc1ccccc1` [Example 54, N-(2-Fluoro-3-pyridinyl)-2-[(phenylmethyl)oxy]-5-(4-pyridinyl)benzamide], the IC50 is not above 20 µM.

As for `O=C(Nc1cccnc1CO)c1cc(-c2ccncc2)ccc1OCc1ccccc1` [Example 55, N-[2-(Hydroxymethyl)-3-pyridinyl]-2-[(phenylmethyl)oxy]-5-(4-pyridinyl)benzamide], the IC50 was more than 25.1 µM. Consider `O=C(Nc1cnccc1CO)c1cc(-c2ccncc2)ccc1OCc1ccccc1` [Example 56, N-[4-(Hydroxymethyl)-3-pyridinyl]-2-[(phenylmethyl)oxy]-5-(4-pyridinyl)benzamide], for which the IC50 is more than 25.1 µM.

With `Cc1oncc1NC(=O)c1cc(-c2ccncc2)ccc1OCc1ccccc1` [Example 62, N-(5-Methyl-4-isoxazolyl)-2-[(phenylmethyl)oxy]-5-(4-pyridinyl)benzamide], the IC50 was more than 25.1 µM.

As to `O=C(Nc1cn[nH]c1)c1cc(-c2ccncc2)ccc1OCc1ccccc1` [Example 64, 2-[(Phenylmethyl)oxy]-N-1H-pyrazol-4-yl-5-(4-pyridinyl)benzamide], the IC50 was not above 20 µM. Regarding `Cn1cc(NC(=O)c2cc(-c3ccncc3)ccc2OCc2ccccc2)cn1` [Example 65, N-(1-Methyl-1H-pyrazol-4-yl)-2-[(phenylmethyl)oxy]-5-(4-pyridinyl)benzamide], the IC50 was not above 20 µM. As for `O=C(Nc1ccnnc1)c1cc(CN2CCOCC2)ccc1OCc1ccc(F)c(F)c1` [Example 111, 2-{[(3,4-Difluorophenyl)methyl]oxy}-5-(4-morpholinylmethyl)-N-4-pyridazinylbenzamide], the IC50 is not above 20 µM. For `COc1ccccc1COc1ccc(-c2cnn(C)c2)cc1C(=O)Nc1cccnc1` [Example 114, 2-({[2-(Methyloxy)phenyl]methyl}oxy)-5-(1-methyl-1H-pyrazol-4-yl)-N-3-pyridinylbenzamide], the IC50 was not above 20 µM.

(Values after patent US8778939B2, “Compounds” (Glaxo Group Limited, priority 2009, dated 2014).)
